The values below come from PubChem BioAssay AID272 (DTP/NCI, 2004).

Values joined by “and” are separate entries in the source; they are usually repeats but may differ in a detail not shown here. Equal values may be shown once. Inconclusive results are not listed.

The subject of the assay is Lewis lung carcinoma i.m., BDF1 mice, T/C %. As to the kind of experiment: NCI In Vivo Anticancer Drug Screen. Data for tumor model Lewis Lung Carcinoma (intramuscular) in B6D2F1 (BDF1) mice. Put shortly: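 Mice carrying transplantable tumours received test compound. Survival or tumour size was recorded and expressed as the treated-group value (T) divided by the vehicle-treated control-group value (C).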

[1] abbreviates: endpoint: mean tumor weight (est.), dose: 1.0 mg/kg/injection, schedule: Q01DX011 (ip), vehicle: saline, higher = larger tumour.
Where [2] appears, read: endpoint: median survival time, dose: 1.0 mg/kg/injection, schedule: Q01DX011 (ip), vehicle: saline, higher = longer survival.
Setting [3] is: endpoint: median survival time, dose: 12.5 mg/kg/injection, schedule: Q01DX011 (ip), vehicle: saline with Tween-80, higher = longer survival.
[4] abbreviates: endpoint: median survival time, dose: 60.0 mg/kg/injection, schedule: Q02DX011 (ip), vehicle: saline with Tween-80, higher = longer survival.
[5] abbreviates: endpoint: median survival time, dose: 6.25 mg/kg/injection, schedule: Q01DX011 (ip), vehicle: saline, higher = longer survival.
Where [6] appears, read: endpoint: median survival time, dose: 12.5 mg/kg/injection, schedule: Q01DX011 (ip), vehicle: saline, higher = longer survival.

Turning to `COc1cc2c(c(OC)c1OC)-c1ccc(OC)c(=O)cc1[C@@H](NC=O)CC2`, the T/C is, setting by setting: (endpoint: mean tumor weight (est.), dose: 0.25 mg/kg/injection, schedule: Q01DX011 (ip), vehicle: saline, higher = larger tumour) 90 % of control; (endpoint: mean tumor weight (est.), dose: 0.5 mg/kg/injection, schedule: Q01DX011 (ip), vehicle: saline, higher = larger tumour) 73 % of control; under setting [1], 49 % of control; (endpoint: median survival time, dose: 0.25 mg/kg/injection, schedule: Q01DX011 (ip), vehicle: saline, higher = longer survival) 90 % of control; (endpoint: median survival time, dose: 0.5 mg/kg/injection, schedule: Q01DX011 (ip), vehicle: saline, higher = longer survival) 116 % of control; under setting [2], 88 % of control.

Consider `C[C@]12CC[C@H]3[C@@H](CC[C@]4(O)C[C@@H](O)CC[C@]34C=O)[C@@]1(O)CC[C@@H]2C1=CC(=O)OC1`, for which the T/C is, setting by setting: under setting [3], 106 % of control; (endpoint: median survival time, dose: 50.0 mg/kg/injection, schedule: Q01DX011 (ip), vehicle: saline with Tween-80, higher = longer survival) 115 % of control.

As to `Cc1cccc2cc3c(ccc4ccccc43)c[n+]12`, the T/C is 91 % of control under setting [1]; 87 % of control (endpoint: mean tumor weight (est.), dose: 2.0 mg/kg/injection, schedule: Q01DX011 (ip), vehicle: saline, higher = larger tumour); 83 % of control (endpoint: mean tumor weight (est.), dose: 4.0 mg/kg/injection, schedule: Q01DX011 (ip), vehicle: saline, higher = larger tumour); 46 % of control (endpoint: mean tumor weight (est.), dose: 8.0 mg/kg/injection, schedule: Q01DX011 (ip), vehicle: saline, higher = larger tumour); 98 % of control under setting [2]; 101 % of control (endpoint: median survival time, dose: 2.0 mg/kg/injection, schedule: Q01DX011 (ip), vehicle: saline, higher = longer survival). For the same compound, the T/C reads like this: (endpoint: median survival time, dose: 4.0 mg/kg/injection, schedule: Q01DX011 (ip), vehicle: saline, higher = longer survival) 98 % of control; (endpoint: median survival time, dose: 8.0 mg/kg/injection, schedule: Q01DX011 (ip), vehicle: saline, higher = longer survival) 121 % of control.

Regarding `Nc1nc(Cl)nc2c1ncn2C1CC(O)C(CO)O1` (stereo unspecified), the T/C is 93 % of control and 95 % of control (endpoint: median survival time, dose: 8.0 mg/kg/injection, schedule: Q01DX Z (ip), vehicle: other, higher = longer survival); 113 % of control (endpoint: median survival time, dose: 16.0 mg/kg/injection, schedule: Q01DX Z (ip), vehicle: other, higher = longer survival); 86 % of control (endpoint: median survival time, dose: 32.0 mg/kg/injection, schedule: Q01DX Z (ip), vehicle: other, higher = longer survival).

Consider `COc1cc(C[C@H]2c3cc(OC)c(OC)cc3CCN2C)c(Oc2cc3c(cc2OC)-c2c(OC)c(OC)cc4c2[C@H](C3)N(C)CC4)cc1OC`, for which the T/C reads like this: (endpoint: mean tumor weight, dose: 12.5 mg/kg/injection, schedule: Q01DX011 (ip), vehicle: other, higher = larger tumour) 104 % of control; (endpoint: mean tumor weight, dose: 25.0 mg/kg/injection, schedule: Q01DX011 (ip), vehicle: other, higher = larger tumour) 100 % of control; (endpoint: mean tumor weight, dose: 50.0 mg/kg/injection, schedule: Q01DX011 (ip), vehicle: other, higher = larger tumour) 93 % of control; (endpoint: median survival time, dose: 12.5 mg/kg/injection, schedule: Q01DX011 (ip), vehicle: other, higher = longer survival) 105 % of control; (endpoint: median survival time, dose: 25.0 mg/kg/injection, schedule: Q01DX011 (ip), vehicle: other, higher = longer survival) 108 % of control; (endpoint: median survival time, dose: 50.0 mg/kg/injection, schedule: Q01DX011 (ip), vehicle: other, higher = longer survival) 117 % of control.

As to `O=C1C=C(N2CC2)c2ccccc2C1=O`, the T/C was 74 % of control (endpoint: mean tumor weight (est.), dose: 5.0 mg/kg/injection, schedule: Q01DX011 (ip), vehicle: saline, higher = larger tumour); 58 % of control (endpoint: mean tumor weight (est.), dose: 10.0 mg/kg/injection, schedule: Q01DX011 (ip), vehicle: saline, higher = larger tumour); 100 % of control (endpoint: median survival time, dose: 5.0 mg/kg/injection, schedule: Q01DX011 (ip), vehicle: saline, higher = longer survival); 100 % of control (endpoint: median survival time, dose: 10.0 mg/kg/injection, schedule: Q01DX011 (ip), vehicle: saline, higher = longer survival).

Take `CC(C)NCC(O)COc1cccc2ccccc12` (stereo unspecified): the T/C is, setting by setting: (endpoint: median survival time, dose: 8.0 mg/kg/injection, schedule: Q01DX009 (ip), vehicle: Klucel (hydroxypropylcellulose) (HPC), higher = longer survival) 121 % of control; (endpoint: median survival time, dose: 16.0 mg/kg/injection, schedule: Q01DX009 (ip), vehicle: Klucel (hydroxypropylcellulose) (HPC), higher = longer survival) 121 % of control; (endpoint: median survival time, dose: 32.0 mg/kg/injection, schedule: Q01DX009 (ip), vehicle: Klucel (hydroxypropylcellulose) (HPC), higher = longer survival) 90 % of control; (endpoint: median survival time, dose: 64.0 mg/kg/injection, schedule: Q01DX009 (ip), vehicle: Klucel (hydroxypropylcellulose) (HPC), higher = longer survival) 110 % of control.

For the compound `O=[N+]([O-])c1cc(Cl)cc2c1nc(NCCO)c1ccccc12`, the T/C (endpoint: mean tumor weight (est.), dose: 12.5 mg/kg/injection, schedule: Q01DX011 (ip), vehicle: saline with Tween-80, higher = larger tumour) was 70 % of control; the T/C (endpoint: mean tumor weight (est.), dose: 25.0 mg/kg/injection, schedule: Q01DX011 (ip), vehicle: saline with Tween-80, higher = larger tumour) was 43 % of control; the T/C under setting [3] is 98 % of control.

On to `Cc1nn(CCO)c(C)c1N=[N+]([O-])c1c(C)nn(CCO)c1C`, for which the T/C by setting is: (endpoint: median survival time, dose: 15.0 mg/kg/injection, schedule: Q02DX011 (ip), vehicle: saline with Tween-80, higher = longer survival) 105 % of control; (endpoint: median survival time, dose: 30.0 mg/kg/injection, schedule: Q02DX011 (ip), vehicle: saline with Tween-80, higher = longer survival) 86 % of control; under setting [4], 97 % of control.

Consider `CC1OC(=O)C(C2OC2C)=CC1O` (stereo unspecified), for which the T/C by setting is: (endpoint: mean tumor weight, dose: 6.25 mg/kg/injection, schedule: Q01DX011 (ip), vehicle: saline, higher = larger tumour) 93 % of control; (endpoint: mean tumor weight, dose: 12.5 mg/kg/injection, schedule: Q01DX011 (ip), vehicle: saline, higher = larger tumour) 99 % of control; (endpoint: mean tumor weight, dose: 25.0 mg/kg/injection, schedule: Q01DX011 (ip), vehicle: saline, higher = larger tumour) 78 % of control; under setting [5], 102 % of control; under setting [6], 109 % of control; (endpoint: median survival time, dose: 25.0 mg/kg/injection, schedule: Q01DX011 (ip), vehicle: saline, higher = longer survival) 107 % of control.

Turning to `O=C(CCl)Nc1ccc(C(=O)O)cc1`, the T/C runs as follows: (endpoint: median survival time, dose: 3.75 mg/kg/injection, schedule: Q01DX011 (ip), vehicle: saline with Tween-80, higher = longer survival) 106 % of control; (endpoint: median survival time, dose: 7.5 mg/kg/injection, schedule: Q01DX011 (ip), vehicle: saline with Tween-80, higher = longer survival) 97 % of control; (endpoint: median survival time, dose: 15.0 mg/kg/injection, schedule: Q01DX011 (ip), vehicle: saline with Tween-80, higher = longer survival) 100 % of control.

With `NC(C(=O)O)C(F)(F)C(=O)O` (stereo unspecified), the T/C is 109 % of control (endpoint: median survival time, dose: 3.12 mg/kg/injection, schedule: Q01DX011 (ip), vehicle: saline, higher = longer survival); 100 % of control under setting [5]; 104 % of control under setting [6].

Turning to `CN=C1N[N+]2=CCCCC2S1` (stereo unspecified), the T/C reads like this: (endpoint: median survival time, dose: 40.0 mg/kg/injection, schedule: Q02DX011 (ip), vehicle: saline with Tween-80, higher = longer survival) 99 % of control; under setting [4], 86 % of control; (endpoint: median survival time, dose: 80.0 mg/kg/injection, schedule: Q02DX011 (ip), vehicle: saline with Tween-80, higher = longer survival) 93 % of control.

Take `NC(Cc1c[nH]c2ccc(N(CCCl)CCCl)cc12)C(=O)O` (stereo unspecified): the T/C is, setting by setting: (endpoint: mean tumor weight, dose: 0.06 mg/kg/injection, schedule: Q01DX011 (ip), vehicle: other, higher = larger tumour) 90 % of control; (endpoint: mean tumor weight, dose: 0.12 mg/kg/injection, schedule: Q01DX011 (ip), vehicle: other, higher = larger tumour) 96 % of control; (endpoint: mean tumor weight, dose: 0.25 mg/kg/injection, schedule: Q01DX011 (ip), vehicle: other, higher = larger tumour) 105 % of control; (endpoint: mean tumor weight, dose: 0.5 mg/kg/injection, schedule: Q01DX011 (ip), vehicle: other, higher = larger tumour) 97 % of control; (endpoint: mean tumor weight, dose: 1.0 mg/kg/injection, schedule: Q01DX011 (ip), vehicle: other, higher = larger tumour) 83 % of control; (endpoint: mean tumor weight, dose: 2.0 mg/kg/injection, schedule: Q01DX011 (ip), vehicle: other, higher = larger tumour) 103 % of control. The T/C (endpoint: median survival time, dose: 0.06 mg/kg/injection, schedule: Q01DX011 (ip), vehicle: other, higher = longer survival) was 94 % of control; the T/C (endpoint: median survival time, dose: 0.12 mg/kg/injection, schedule: Q01DX011 (ip), vehicle: other, higher = longer survival) was 102 % of control; the T/C (endpoint: median survival time, dose: 0.25 mg/kg/injection, schedule: Q01DX011 (ip), vehicle: acid diluted with saline, higher = longer survival) is 89 % of control; the T/C (endpoint: median survival time, dose: 0.25 mg/kg/injection, schedule: Q01DX011 (ip), vehicle: other, higher = longer survival) was 86 % of control; the T/C (endpoint: median survival time, dose: 0.5 mg/kg/injection, schedule: Q01DX011 (ip), vehicle: acid diluted with saline, higher = longer survival) was 105 % of control; the T/C (endpoint: median survival time, dose: 0.5 mg/kg/injection, schedule: Q01DX011 (ip), vehicle: other, higher = longer survival) is 96 % of control. Besides, where the note is “endpoint: median survival time, dose: 1.0 mg/kg/injection, schedule: Q01DX011 (ip), vehicle: other, higher = longer survival”, the T/C is 104 % of control.

On to `O=C(C[n+]1cc(Br)cc2ccccc21)c1ccc(O)c(O)c1`, for which the T/C (endpoint: mean tumor weight (est.), dose: 28.75 mg/kg/injection, schedule: Q01DX011 (ip), vehicle: saline, higher = larger tumour) was 90 % of control; the T/C (endpoint: mean tumor weight (est.), dose: 57.5 mg/kg/injection, schedule: Q01DX011 (ip), vehicle: saline, higher = larger tumour) was 95 % of control; the T/C (endpoint: mean tumor weight (est.), dose: 115.0 mg/kg/injection, schedule: Q01DX011 (ip), vehicle: saline, higher = larger tumour) was 63 % of control; the T/C (endpoint: mean tumor weight (est.), dose: 230.0 mg/kg/injection, schedule: Q01DX011 (ip), vehicle: saline, higher = larger tumour) is 52 % of control.
